We go through three compounds from patent EP4512427A1, “ANTIBODY-DRUG CONJUGATES BASED ON MOLECULAR GLUE DEGRADERS AND USES THEREOF” (Mablink Bioscience, priority 2023, dated 2025).

One data set in a line: in vitro. Particulars: PAMPA, pH 7.4.
The target of the next data set is T1, BCRP (Homo sapiens, UniProt Q9UNQ0).
T1 construct: host or cells: MDCK-BCRP (Preadyport)
T1 sequence (Q9UNQ0 1-655): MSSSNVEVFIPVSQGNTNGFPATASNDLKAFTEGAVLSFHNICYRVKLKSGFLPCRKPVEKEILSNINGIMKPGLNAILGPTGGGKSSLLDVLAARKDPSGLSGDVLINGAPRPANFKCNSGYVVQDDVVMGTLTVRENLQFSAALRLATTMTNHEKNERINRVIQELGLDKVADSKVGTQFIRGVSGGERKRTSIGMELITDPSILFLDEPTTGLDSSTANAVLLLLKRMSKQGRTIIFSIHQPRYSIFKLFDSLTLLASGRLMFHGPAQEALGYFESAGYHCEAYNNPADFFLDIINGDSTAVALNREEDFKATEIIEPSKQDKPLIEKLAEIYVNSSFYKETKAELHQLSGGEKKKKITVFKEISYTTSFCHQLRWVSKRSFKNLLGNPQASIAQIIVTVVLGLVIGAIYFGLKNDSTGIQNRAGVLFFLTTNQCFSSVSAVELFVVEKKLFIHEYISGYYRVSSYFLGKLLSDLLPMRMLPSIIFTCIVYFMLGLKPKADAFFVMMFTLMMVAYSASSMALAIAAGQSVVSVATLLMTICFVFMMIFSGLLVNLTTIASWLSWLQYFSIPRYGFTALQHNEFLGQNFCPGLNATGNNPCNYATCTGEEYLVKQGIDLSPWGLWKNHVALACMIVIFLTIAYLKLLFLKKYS
Nature of the data set: BCRP efflux substrate assay in MDCK-BCRP. The data set is classed as in vitro ADME. Particulars: for efflux ratio at 60 min, 5 µM / Papp A→B at 60 min, 5 µM / Papp B→A at 60 min, 5 µM: dog, pH 7.4, MDCK-BCRP; for efflux ratio at 60 min, 5 µM: read-out: Efflux ratio B/A; for Papp A→B at 60 min, 5 µM: read-out: Papp A (donor) to B (acceptor); for Papp B→A at 60 min, 5 µM: read-out: Papp B (acceptor) to A (donor). The protocol:
(§1) MDR1 and BCRP efflux substrate assays were conducted in MDCK-MDR1 and MDCK-BCRP in vitro models (Preadyport™, Solvo Biotech) at Symeres (Nederland). Compound of the invention (donor well concentration of 5µM) were incubated in cell monolayer 24-transwell Preadyport system, using Preadyport recommended pH 7.4 assay buffer (donor and receiver wells). After 60 min of incubation (no shaking), samples are collected and suspended into triple volume of 66% cold acetonitrile. Samples are stored at -20°C until thawed, centrifuged and analyzed by LC-MS. Quinidine was used a positive control for the MDR1 assay, and prazosin was used as a positive control for the BCRP assay. Exatecan was used as a control, known not to be an MDR1 substrate. Residual DMSO content from compounds stock solutions was below 1% (v/v). The assay was performed in duplicate. The quantification of test compounds in donor or receptor compartment is conducted using relative LC/MS peak areas (samples of initial incubation solutions are used as a single point calibrator), without any spiked standard samples. The data is used for estimating apparent permeability (Papp) and calculation of efflux ratio.

For the next data set, the system named is MDA-MB-231. Nature of the data set: In vitro cytotoxicity assay (MTT). It counts as cell-based, human. The following applies: Homo sapiens, 6 days incubation. In outline:
(§2)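 Absorbance at 570 nm, with 690 nm as reference, gave viability after MTT labelling for 1–4 h and dissolution in acidified isopropanol. Compound exposure lasted 6 days at 37°C following a 24 h attachment period. IC50 values are relative to untreated controls.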

In the next data set the test system is NCI-N87. Nature of the data set: In vitro cytotoxicity assay (MTT). The data set is classed as cell-based, human. Particulars: Homo sapiens, 6 days incubation. In outline: as §2
In the next data set the test system is SKBR-3. Nature of the data set: In vitro cytotoxicity assay (MTT). It counts as cell-based, human. Particulars: Homo sapiens, SK-BR-3, 144 h, 6 days incubation. An outline of the steps:
as §2

A further data set deals with MDA-MB-453. Nature of the data set: In vitro cytotoxicity assay (MTT). The data set is classed as cell-based, human. The following applies: Homo sapiens, 6 days incubation. In outline:
as §2

The test system of another data set is BT-474. Nature of the data set: In vitro cytotoxicity assay (MTT). It counts as cell-based, human. Particulars: Homo sapiens, BT-474, 144 h. An outline of the steps: as §2
The subject of the next data set is JIMT-1. Nature of the data set: In vitro cytotoxicity assay (MTT). It counts as cell-based, human. The following applies: Homo sapiens, 144 h, 6 days incubation. In outline:
as §2

The next data set addresses T2, MDR1 (Homo sapiens, UniProt P08183).
T2 construct: host or cells: MDCK-MDR1 (Preadyport)
Nature of the data set: MDR1 efflux substrate assay in MDCK-MDR1. The data set is classed as in vitro ADME. The following applies: for Papp A→B at 60 min, 5 µM / Papp B→A at 60 min, 5 µM: MDCK-MDR1, 5µM, pH 7.4; for Papp A→B at 60 min, 5 µM: read-out: Papp A (donor) to B (acceptor); for Papp B→A at 60 min, 5 µM: read-out: Papp B (acceptor) to A (donor). On the procedure:
as §1

The next data set deals with MCF-7. Nature of the data set: In vitro cytotoxicity assay (MTT). It counts as cell-based. The following applies: Homo sapiens, MCF7, 144 h, 6 days incubation. The protocol: (§3) In vitro cytotoxicity of compounds of the disclosure was assessed on several cancerous human cell lines. Cells were plated in 96-well plates at an appropriate density depending on the cell line (between 1000 and 10 000 cells/well in 100µL of appropriate culture media) and incubated at 37°C for 24 hours. Serial dilutions of the tested compound previously dissolved in culture media (50µL) were added, and incubation was carried at 37°C out for 6 days. MTT (5mg/mL in PBS, 20µL, Sigma-Aldrich) was added into the wells, and incubation was continued for 1 to 4 hours at 37°C. Culture media was then carefully removed, and well content was homogeneously dissolved with acidified isopropanol. Absorbance values were measured on a microplate reader using a wavelength of 570 nm (with a reference wavelength of 690 nm). The IC50 concentration values compared to untreated control cells were determined using inhibition dose response curve fitting (GraphPad Prism 9). Exatecan mesylate (cat#HY-13631A) and CR8 (CAS# 294646-77-8; cat#HY-18340) were purchased from MedChemExpress (China).

A further data set has as its system KB-1. Nature of the data set: In vitro cytotoxicity assay (MTT). It counts as cell-based. The following applies: Homo sapiens, KB16, 144 h, 6 days incubation. The protocol: as §3
In the next data set the test system is HT-29. Nature of the data set: In vitro cytotoxicity assay (MTT). It counts as cell-based. Particulars: Homo sapiens, 144 h, 6 days incubation. The protocol: as §3
The subject of another data set is BXPC3. Nature of the data set: In vitro cytotoxicity assay (MTT). Particulars: Homo sapiens, BXPC-3, 144 h, 6 days incubation. It counts as cell-based. On the procedure: as §3

T2 sequence (P08183 whole entry): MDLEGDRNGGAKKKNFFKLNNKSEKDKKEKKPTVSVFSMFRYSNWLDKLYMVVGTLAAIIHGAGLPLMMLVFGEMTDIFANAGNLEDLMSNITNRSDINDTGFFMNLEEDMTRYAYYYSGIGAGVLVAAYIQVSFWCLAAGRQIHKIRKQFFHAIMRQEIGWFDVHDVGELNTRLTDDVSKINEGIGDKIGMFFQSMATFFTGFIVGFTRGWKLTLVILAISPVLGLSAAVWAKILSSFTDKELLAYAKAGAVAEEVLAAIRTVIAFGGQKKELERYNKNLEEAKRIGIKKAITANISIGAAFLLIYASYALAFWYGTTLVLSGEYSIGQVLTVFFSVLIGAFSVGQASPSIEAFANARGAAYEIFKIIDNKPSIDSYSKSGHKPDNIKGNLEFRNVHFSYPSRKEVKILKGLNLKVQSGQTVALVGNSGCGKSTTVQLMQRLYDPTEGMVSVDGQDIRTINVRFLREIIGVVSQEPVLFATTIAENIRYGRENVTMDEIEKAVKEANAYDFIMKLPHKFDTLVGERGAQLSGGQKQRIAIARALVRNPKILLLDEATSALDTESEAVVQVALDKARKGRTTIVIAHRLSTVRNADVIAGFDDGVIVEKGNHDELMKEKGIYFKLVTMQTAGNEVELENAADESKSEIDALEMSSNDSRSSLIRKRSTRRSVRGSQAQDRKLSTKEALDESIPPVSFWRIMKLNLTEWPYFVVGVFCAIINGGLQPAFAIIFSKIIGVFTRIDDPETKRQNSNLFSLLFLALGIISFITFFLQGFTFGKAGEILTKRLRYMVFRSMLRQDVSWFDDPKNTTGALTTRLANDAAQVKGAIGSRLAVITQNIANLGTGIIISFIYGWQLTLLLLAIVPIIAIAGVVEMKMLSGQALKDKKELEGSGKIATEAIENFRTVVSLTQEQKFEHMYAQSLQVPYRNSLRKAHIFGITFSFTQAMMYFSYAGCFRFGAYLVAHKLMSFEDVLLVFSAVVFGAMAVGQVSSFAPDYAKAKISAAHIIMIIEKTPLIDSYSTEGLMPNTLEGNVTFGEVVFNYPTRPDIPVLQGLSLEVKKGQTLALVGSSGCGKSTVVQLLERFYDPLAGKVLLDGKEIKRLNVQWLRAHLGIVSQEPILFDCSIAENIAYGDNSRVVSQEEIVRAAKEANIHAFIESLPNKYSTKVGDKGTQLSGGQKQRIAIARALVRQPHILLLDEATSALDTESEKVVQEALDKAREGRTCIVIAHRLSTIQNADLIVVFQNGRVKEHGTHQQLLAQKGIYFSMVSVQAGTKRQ

On to `N[C@H]1CC[C@@H](Nc2nc(NCc3ccc(-c4ccccn4)cc3)n3ncc(Br)c3n2)CC1` [Compound 2568], for which the Papp at 5 h, 50 µM in the data set “in vitro” came out at 88 ×10⁻⁶ cm/s. The efflux ratio at 60 min, 5 µM on BCRP is 23.6. The results for the Papp A→B at 60 min, 5 µM on BCRP and at MDR1 (dog) were 2.52 ×10⁻⁶ cm/s and under 0.54 ×10⁻⁶ cm/s, respectively. Further, the Papp B→A at 60 min, 5 µM at BCRP worked out at 59.5 ×10⁻⁶ cm/s; at MDR1 (dog), 40.5 ×10⁻⁶ cm/s. Besides, the IC50 in the data set on MDA-MB-231 (144 h) stood at 0.98 nM; in the data set with NCI-N87 (144 h), 2.22 nM; with SKBR-3 it was 4.36 nM; in the data set on MDA-MB-453 (144 h) it was 1.67 nM; with BT-474 it was 1.75 nM; in the data set with JIMT-1, 0.62 nM. Moreover, the IC50 stood at 11.6 nM in the data set on MCF-7, 4.95 nM in the data set on KB-1, 0.46 nM in the data set with HT-29 and 4.86 nM in the data set on BXPC3.
For `NC[C@H]1CC[C@H](Nc2nc(NCc3ccc(-c4ccccn4)cc3)n3ncc(Br)c3n2)CC1` [Compound 2636], in the data set “in vitro”, the Papp at 5 h, 50 µM came out at 67 ×10⁻⁶ cm/s. In addition, the efflux ratio at 60 min, 5 µM on BCRP came to 6.21. The Papp A→B at 60 min, 5 µM is 3 ×10⁻⁶ cm/s at BCRP and under 12.9 ×10⁻⁶ cm/s at MDR1 (dog). In addition, the Papp B→A at 60 min, 5 µM was determined as 18.6 ×10⁻⁶ cm/s at BCRP and 30.8 ×10⁻⁶ cm/s at MDR1 (dog). Besides, the IC50 in the data set on MDA-MB-231 (MDA-MB-231, 144 h) is 1.46 nM; in the data set with NCI-N87 (NCI-N87, 144 h), 2.46 nM; in the data set with SKBR-3, 0.17 nM; in the data set on MDA-MB-453 (MDA-MB-453, 144 h) it was 1.97 nM; in the data set on BT-474 (BT-474, 6 days incubation, MTT), 3.68 nM; in the data set on JIMT-1 it was 0.12 nM. Also, the IC50 came to 33.1 nM in the data set with MCF-7, 8.1 nM in the data set on KB-1, 1.28 nM with HT-29 and 4.68 nM with BXPC3.
As for `CN(CCN)c1nc(NCc2ccc(-c3ccccn3)cc2)n2ncc(Br)c2n1` [Compound 2600], the Papp at 5 h, 50 µM in the data set “in vitro” was 90 ×10⁻⁶ cm/s. Besides, the efflux ratio at 60 min, 5 µM on BCRP was 2.1; at MDR1 (dog, MDCK-MDR1, pH 7.4, read-out: Efflux ratio B/A), 28.9. For the same compound, the apparent permeability from apical to basolateral (Papp A→B) at 60 min, 5 µM at BCRP came out at 22.4 ×10⁻⁶ cm/s; at MDR1 (dog), 2.05 ×10⁻⁶ cm/s. In addition, the Papp B→A at 60 min, 5 µM at BCRP amounted to 47.1 ×10⁻⁶ cm/s; on MDR1 (dog) it was 59.3 ×10⁻⁶ cm/s. Further, at BCRP (in words), the BCRP efflux potential result is “low level”. In addition, the IC50 with MDA-MB-231 (MDA-MB-231, 144 h) was 0.29 nM; with NCI-N87 (NCI-N87, 144 h), 1.32 nM; with SKBR-3 it was 1.69 nM; with MDA-MB-453 (MDA-MB-453, 144 h) it was 1.17 nM; in the data set on BT-474 (BT-474, 6 days incubation, MTT), 1.18 nM; in the data set with JIMT-1, 0.19 nM. Also, the IC50 in the data set with MCF-7 stood at 12.2 nM; in the data set on KB-1 it was 1.48 nM; with HT-29, 0.28 nM; in the data set on BXPC3, 1.16 nM. Also, the MDR1 efflux potential result on MDR1 (in words) is “low level”.
